Assay results: patent US9856207B2, “Process for the production of ralfinamide salts substantially free from impurities having genotoxic effects” (Newron Pharmaceuticals S.p.A., priority 2010, dated 2018)

What was measured:
Format in all cases: physicochemical
[1] = Solubility of the free base in water; conditions: also at 100° C.
Description: According to a preferred method to carry out the procedure defined above as “salt formation”, the formation of ralfinamide methanesulfonate form H or its R-enantiomer is carried out by using water as the sole solvent in which the free base and the methanesulfonic acid are contacted in substantially equimolecular proportion. According to a more preferred method, methanesulfonic acid is added to a suspension or emulsion of the free base in water. Generally 50-70 percent of the stoichiometric amount of the acid is initially added. […] The remaining portion of methanesulfonic acid to complete the stoichiometric amount required for the salification, or a small excess or defect (in both cases of up to 3 molar %), is subsequently added to the obtained solution. […] Therefore, it would not be possible to apply prior to the addition of the acid, any purification method implying the treatment of a solution of the free base with active charcoal or inert powder followed by filtration to remove small particles and/or impurities. […] The complementary amount of acid may be added soon after this treatment of the solution, preferably, after lowering the temperature of the mixture below 70° C.

[2] = Intrinsic Dissolution Rate (IDR) measurement according to USP General Chapter <1087>; conditions: ralfinamide methanesulfonate solid forms, USP <1087>
Description: Intrinsic dissolution rate is characteristic of each solid compound in a given solvent under fixed hydrodynamic conditions. The knowledge of this value helps in predicting if absorption would be dissolution rate-limited. The Intrinsic Dissolution Rate (IDR) measurement of ralfinamide methanesulfonate form A and H was performed according to USP General Chapter <1087>.

[3] = Exposure of form A crystals to air stream of high relative humidity (water uptake, solid form conversion); conditions: 97% RH air stream at 25° C. for two months
Text: As an alternative procedure to the slurring with water for converting anhydrous form A crystals containing undesired amounts of genotoxic impurities and/or of the residual solvents known as potential precursors thereof into the corresponding hemihydrate pseudopolymorph form H substantially free from the genotoxic impurities and/or the residual solvents known as potential precursors thereof, the capability of anhydrous form A crystals to uptake water from air having high degree of relative humidity may be exploited. For example, full conversion of form A crystals into the corresponding hemihydrate pseudopolymorph form H crystals can be achieved by keeping a batch of ralfinamide methanesulfonate or its R-enantiomer form A crystals under air stream having relative humidity higher than 65% at a temperature from 5° C. to 30° C. for a period of time which may vary from days to weeks or months, depending on the relative humidity degree and the temperature.

Solubility in water [1]	Intrinsic Dissolution Rate [2]	Solid form stability under humid air [3]	SMILES
practically insoluble in water			C[C@@H](NCc1ccc(OCc2ccccc2F)cc1)C(N)=O [R-enantiomer, (R)-2-[4-(2-fluorobenzyloxy)benzylamino]propanamide]
	0.857 ± 0.012 mg · cm−2 · min−1		CS(=O)(=O)O.C[C@H](NCc1ccc(OCc2ccccc2F)cc1)C(N)=O [Hemihydrate form H, (S)-2-[4-(2-fluorobenzyloxy)benzylamino]propanamide methanesulfonate]
practically insoluble in water			C[C@H](NCc1ccc(OCc2ccccc2F)cc1)C(N)=O [Ralfinamide free base, (S)-2-[4-(2-fluorobenzyloxy)benzylamino]propanamide]
	1.527 ± 0.265 mg · cm−2 · min−1	fully converted into the form H	CS(=O)(=O)O.C[C@H](NCc1ccc(OCc2ccccc2F)cc1)C(N)=O [Anhydrous form A, (S)-2-[4-(2-fluorobenzyloxy)benzylamino]propanamide methanesulfonate]
